From patent publication US9474765B2, “Composition for lipolysis, containing phosphatidylcholine, and preparation method therefor” (AMI Pharm Co., Ltd., priority 2013, dated 2016)

Experiments:
Sprague-Dawley rats [1] = assay: Measuring the thickness of the soles of the hind feet after injection (edema, erythema); type: in vivo
Procedure: 0.1 ml of the injectable compositions of the above Table 1, Lipobean (purchased from Ami Pharm Co., Ltd.; positive control) or 2.5% sodium deoxycholate (hereinafter, “DC”; saline solution was used as a solvent) were injected into the soles of the hind feet of 6 week-old, male Sprague-Dawley rats (weight: 170-200 g), respectively. The thickness of the soles was measured by using calipers at 1, 2, 3, and 4 hours after injection, while test performers were not aware of the order or the purpose of tests (i.e. blind study).

Sprague-Dawley rats [2] = assay: Histological test of the soles (hematoxylin eosin); type: in vivo; details: 4 hours after administration, FIG. 3
From the text: Four (4) hours after the above described administration, rats were sacrificed of which soles were removed and their skins were incised and fixated in 10% formalin solution. Then, they were dyed in hematoxylin eosin solution to observe their morphological changes.

[3] = tested on: Myeloperoxidase (MPO) activity; assay: MPO Activity Colorimetric Assay on hind feet tissue samples; type: in vivo, mice; details: FIG. 4; comparison of groups
Procedure: Myeloperoxidase (MPO) activity was measured by using MPO Activity Colorimetric Assay Kit (BioVision, USA). The tissue samples of the hind feet of test animals in phosphatidylcholine (PC)-containing injection-administered test groups and sodium deoxycholate (DC)-administered group in various concentrations (PC 2.5%, PC 5%, DC 2.5%, PC 5%+DC 2.5%) were mixed in 4 times MPO assay buffer and centrifuged at 12,000 rpm for 10 minutes, followed by diluting each tissue sample with 25 μl of MPO assay buffer, respectively. The diluted samples were placed into standard, background sample of 96-well plate, while dividing reaction mix and background into their corresponding wells and cultivating at 25° C. for 120 minutes. Then, stop mix was added and left for 10 minutes. Subsequently, TNB reagent was added to equalize the total amount of each well to 150 μl, followed by sun blocking with aluminum foils and 10 minutes later measuring absorption value at 412 nm.

Prostaglandin E2 (PGE2) = assay: PGE2 Assay on hind feet tissue samples; type: in vivo, mice; details: FIG. 7
Procedure: Prostaglandin E2 (PGE2) in the hind feet tissue samples of test animals in phosphatidylcholine (PC)-containing injection-administered test groups and sodium deoxycholate (DC)-administered group in various concentrations (PC 2.5%, PC 5%, DC 2.5%, PC 5%+DC 2.5%) was measured with PGE2 Assay (R&D System Inc., Minneapolis, USA). During cultivation, PGE2s in the hind feet tissue samples bound competitively with horse radish peroxidase (HRP)-labeled PGE2 to their mouse monoclonal antibodies. Unbound materials were removed by using washing buffer, while substrate solution was added to each well and left at room temperature with sunlight blocked. Then, stop solution was added, followed by measuring absorption value at 450 nm.

Albino C57BL/6 mice = assay: Determination of tissue necrosis through visual inspection after subcutaneous abdominal injection; type: in vivo; details: 8 days after administration; for Tissue necrosis at the injected area (visual inspection): 0.2 ml s.c. into abdomen of obese mice, FIG. 8
Procedure: (§1) Albino C57BL/6 mice (4 weeks old) were fed with high fat diet (Research diet, 60% kcal lipid) to induce a high degree of obesity. Then, after 24 and 48 hours, 0.2 ml of saline solution (negative control group), injection compositions of Table 1, Lipobean, 2.5% DC were injected subcutaneously into the abdomen of the mice, respectively. Eight (8) days after the administration was completed, the mice were sacrificed.
Visual inspection was conducted on the subcutaneously injected areas of the sacrificed mice.

adipocytes = assay: Observation of adipocytes in abdominal subcutaneous fats (H&E, optical microscope); type: in vivo, Albino C57BL/6 mice; details: 0.2 ml s.c. into abdomen of obese mice, FIG. 9
Procedure: as §1
The abdomen of the sacrificed mice was incised, followed by rapid extraction of subcutaneous fats and their fixation in 4% formaldehyde solution. After fixation, washing & dehydrating were conducted and treated with paraffin solution to prepare paraffin blocks. Then, those paraffin blocks were thin-sliced in the thickness of 4 μm which were then dyed with hematoxylin & eosin for an optical microscopic observation.
The size of adipocytes in the saline control group and the PC injection-administered group were measured.

**Q.** Which results are given for sodium deoxycholate [DC 2.5%]?
**A.** Measurement of the thickness of the feet (Sprague-Dawley rats [1]; 0 h, 0.1 ml injected into soles of hind feet, calipers): 0.324; Measurement of the thickness of the feet (Sprague-Dawley rats [1]; 1 h after injection, 0.1 ml into soles of hind feet): 0.720; Measurement of the thickness of the feet (Sprague-Dawley rats [1]; 2 h after injection, 0.1 ml into soles of hind feet): 0.706; Measurement of the thickness of the feet (Sprague-Dawley rats [1]; 3 h after injection, 0.1 ml into soles of hind feet): 0.682; Measurement of the thickness of the feet (Sprague-Dawley rats [1]; 4 h after injection, 0.1 ml into soles of hind feet): 0.625; Edema and neutrophils in sole tissue (histology) (Sprague-Dawley rats [2]): both edema and neutrophils; MPO activity in hind feet tissue [3]: overall higher MPO activity; Level of PGE2 relative to phosphatidylcholine (PC)-administered test groups (Prostaglandin E2 (PGE2)): ≥ 2 times; Tissue necrosis at the injected area (visual inspection) (Albino C57BL/6 mice; listed as 2.5% DC): severe necrosis with perforation in the skin; Tissue necrosis at the injected area (visual inspection) (Albino C57BL/6 mice; listed as DC): severe tissue necrosis with perforation and fibrosis; Fibrosis (autopsy) (Albino C57BL/6 mice; 0.2 ml s.c. into abdomen): fibrosis was spread to the surrounding tissues; Inflammation in abdominal subcutaneous fat (histology) (adipocytes): greater degree of inflammation than other groups; Lipolysis in abdominal subcutaneous fat (histology) (adipocytes): Almost no lipolysis effect
